The term inhibition denotes the percentage by which the read-out fell short of the control. A low value points to a response near the control.

Test [1] relates to de novo hepatic cholesterol synthesis. As to the kind of experiment: Acute rat cholesterol synthesis assay (de novo hepatic cholesterol synthesis from 14C-acetate). Type of test: in vivo. The note with it: at 50mg/kg; female rats. On the procedure:
(b) Acute rat cholesterol synthesis assay.
This is an acute in vivo test in the rat to measure de novo hepatic cholesterol synthesis from exogenously administered ^14C-acetate.
Female rats (35 - 55 g) are housed in reverse lighting conditions (red light from 0200h - 1400h) for a period of about 2 weeks prior to test. Animals are allowed free access to chow and drinking water throughout this period. At test, animals should weigh 125 - 150 g.
Test compounds may be administered by oral gavage, dissolved or suspended in 0.5% polysorbate, or by ip or iv dosing. Control animals receive vehicle alone. After 1 hour the rats are injected ip with 25µCi [2-^14C]-acetate (NEN DUPONT. specific activity, 45-60mCi/mmol NEC-085H, or AMERSHAM specific activity, 50-60mCi/mmol CFA 14) in a volume of 0.25 ml saline (100µCi/ml). After a further hour, rats are terminally anaesthetised with halothane and a blood sample obtained from the abdominal vena cava.
1ml of plasma is lyophilised and then saponified in 2ml ethanolic KOH (1 part 33% KOH, 9 parts ethanol) at 75°C for 2 hours. After addition of an equal quantity of water, non-saponifiable lipids are extracted with two 5ml volumes of hexane. The hexane extracts are evaporated to dryness and the residues dissolved in ethanol to determine cholesterol specific radioactivity. ED50 values can be determined in the standard way.

In another test the target is T1, Squalene synthase (Rattus norvegicus, UniProt Q02769).
T1 construct: from tissue; host or cells: rat liver microsomes
T1 sequence (Q02769 1-416): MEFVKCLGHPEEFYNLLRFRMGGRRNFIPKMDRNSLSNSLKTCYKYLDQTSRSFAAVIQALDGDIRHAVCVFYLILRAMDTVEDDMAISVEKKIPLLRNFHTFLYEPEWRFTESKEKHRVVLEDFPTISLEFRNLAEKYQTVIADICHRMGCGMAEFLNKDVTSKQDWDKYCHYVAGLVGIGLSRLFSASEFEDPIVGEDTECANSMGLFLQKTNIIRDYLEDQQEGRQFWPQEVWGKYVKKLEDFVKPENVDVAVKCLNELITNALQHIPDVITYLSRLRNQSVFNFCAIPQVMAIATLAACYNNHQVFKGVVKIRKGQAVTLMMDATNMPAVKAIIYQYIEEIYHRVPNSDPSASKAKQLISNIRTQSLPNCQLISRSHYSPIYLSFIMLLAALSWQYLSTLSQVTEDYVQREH
The test is described as follows: Inhibition of squalene synthase (formation of squalene from tritiated farnesyl pyrophosphate by rat liver microsomal protein). Format: biochemical. To be noted: substrate 1-[3H]-farnesyl pyrophosphate 20µM. As to the method:
(a) Inhibition of Squalene synthase
In this test, the ability of a compound to prevent the formation of squalene from a radioactive substrate (tritiated farnesyl pyrophosphate) is assessed.
The test compound is incubated at a concentration of 25 micromolar in 200µl of a buffered solution containing potassium phosphate (50mM), MgCl2 (4.95mM), KF (9.9mM), NADPH (0.9mM) and rat liver microsomal protein (20µg). Rat liver microsomes are prepared by the method described in published European Patent Application No. 324,421 and stored in liquid nitrogen prior to assay. Assay vials are kept at 37°C throughout the incubation.
The reaction is started with the addition of the substrate (1-[^3H]-farnesyl pyrophosphate), final concentration 20µM, and stopped after 15 minutes reaction time with the addition of 50µl of 4% KOH. The reaction products are separated from unreacted substrate after application to a C-18 octadecyl lccBond column (Analytichem Int product No. 617101). An aqueous fraction is eluted with 250µl of 0.1M KOH. Squalene is then eluted with 1.0 ml 10% ethylacetate in hexane and radioactivity determined. The difference in radioactivity in the presence and absence of the test compound is used to determine the level of inhibition. […] The IC50 can then be determined from a plot of percentage inhibition against concentration of test compound.
For orientation: Microsomes from liver hold many membrane-bound enzymes, among them those of drug oxidation.

On to `OC1(c2ccc(/C=C/c3cccnc3)cc2)CN2CCC1CC2` (centres unmarked) [Example 2, 3-(4-[(E)-2-(3-pyridyl)vinyl]phenyl)quinuclidin-3-ol], for which the “reduction in the rate of cholesterol biosynthesis” value in test [1] amounted to 72%. At Squalene synthase, this molecule came in with an inhibition at 2.5 µM of roughly 89%.
